Values joined by “and” are separate entries in the source; they are usually repeats but may differ in a detail not shown here. Identical values can stand only once.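 96-well plates; 48 h exposure; 5 concentrations. Endpoints by linear interpolation between flanking doses. Not reached: highest tested concentration assigned. TGI: concentration producing complete growth inhibition.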
What was measured:
Assay in all cases: NCI tumour cell line growth inhibition, 48 h
A549 NSCLC = test system: A549 NSCLC
HCT-116 colon = test system: HCT-116 colon
OVCAR-8 ovarian = test system: OVCAR-8 ovarian
OVCAR-5 ovarian = test system: OVCAR-5 ovarian
NCI-H23 lung = test system: NCI-H23 lung
CAKI-1 renal = test system: CAKI-1 renal
SK-MEL-2 melanoma = test system: SK-MEL-2 melanoma
SNB-75 CNS = test system: SNB-75 CNS
SNB-19 CNS = test system: SNB-19 CNS
HOP-92 NSCLC = test system: HOP-92 NSCLC
NCI-H522 lung = test system: NCI-H522 lung
NCI-H226 lung = test system: NCI-H226 lung
OVCAR-4 ovarian = test system: OVCAR-4 ovarian
CCRF-CEM leukemia = test system: CCRF-CEM leukemia
SK-MEL-28 melanoma = test system: SK-MEL-28 melanoma
A498 renal = test system: A498 renal
IGROV1 ovarian = test system: IGROV1 ovarian
HL-60(TB) leukemia = test system: HL-60(TB) leukemia
UACC-62 melanoma = test system: UACC-62 melanoma
EKVX NSCLC = test system: EKVX NSCLC
SNB-78 CNS = test system: SNB-78 CNS
HT29 colon = test system: HT29 colon
P388/ADR leukemia = test system: P388/ADR leukemia
HOP-18 NSCLC = test system: HOP-18 NSCLC
MALME-3M melanoma = test system: MALME-3M melanoma
HCT-15 colon = test system: HCT-15 colon
HCC-2998 colon = test system: HCC-2998 colon
SF-295 CNS = test system: SF-295 CNS
K-562 leukemia = test system: K-562 leukemia
XF 498 CNS = test system: XF 498 CNS
RXF 393 renal = test system: RXF 393 renal
COLO 205 colon = test system: COLO 205 colon
OVCAR-3 ovarian = test system: OVCAR-3 ovarian
SN12C renal = test system: SN12C renal
SF-268 CNS = test system: SF-268 CNS
RPMI-8226 leukemia = test system: RPMI-8226 leukemia
UO-31 renal = test system: UO-31 renal
U251 CNS = test system: U251 CNS
P388 leukemia = test system: P388 leukemia
HOP-62 NSCLC = test system: HOP-62 NSCLC
LOX IMVI melanoma = test system: LOX IMVI melanoma
UACC-257 melanoma = test system: UACC-257 melanoma
SF-539 CNS = test system: SF-539 CNS
NCI-H460 lung = test system: NCI-H460 lung
DLD-1 colon = test system: DLD-1 colon
MOLT-4 leukemia = test system: MOLT-4 leukemia
M19-MEL melanoma = test system: M19-MEL melanoma
SW-620 colon = test system: SW-620 colon
KM20L2 colon = test system: KM20L2 colon
MCF7 breast = test system: MCF7 breast
SK-MEL-5 melanoma = test system: SK-MEL-5 melanoma
KM12 colon = test system: KM12 colon
NCI/ADR-RES ovarian = test system: NCI/ADR-RES ovarian
DMS 273 small cell lung = test system: DMS 273 small cell lung
SK-OV-3 ovarian = test system: SK-OV-3 ovarian
SN12K1 renal = test system: SN12K1 renal
MDA-MB-435 = test system: MDA-MB-435
M14 melanoma = test system: M14 melanoma
LXFL 529 NSCLC = test system: LXFL 529 NSCLC
RXF-631 renal = test system: RXF-631 renal
MDA-MB-231 breast = test system: MDA-MB-231 breast
TK-10 renal = test system: TK-10 renal
BT-549 breast = test system: BT-549 breast
HS 578T breast = test system: HS 578T breast
786-0 renal = test system: 786-0 renal
SR leukemia = test system: SR leukemia
T-47D breast = test system: T-47D breast
PC-3 prostate = test system: PC-3 prostate
DMS 114 small cell lung = test system: DMS 114 small cell lung
DU-145 prostate = test system: DU-145 prostate
ACHN renal = test system: ACHN renal

In the case of `COc1ccc(Cc2nn(C3OC(COC(C)=O)C(OC(C)=O)C(OC(C)=O)C3OC(C)=O)c(=S)n(-c3ccc(OC)cc3)c2=O)cc1` (centres undefined), the TGI (A549 NSCLC) is reported as > 100 µM, the TGI (HCT-116 colon) is reported as > 100 µM and the TGI (OVCAR-8 ovarian) is reported as > 100 µM. For the same compound, the TGI (OVCAR-5 ovarian) was > 100 µM, the TGI (NCI-H23 lung) was > 100 µM and the TGI (CAKI-1 renal) was > 100 µM. The TGI (SK-MEL-2 melanoma) was > 100 µM, the TGI (SNB-75 CNS) was > 92.2 µM and the TGI (SNB-19 CNS) was > 100 µM. For the same compound, the TGI (HOP-92 NSCLC) was > 100 µM, the TGI (NCI-H522 lung) was > 100 µM and the TGI (NCI-H226 lung) was > 100 µM. The TGI (OVCAR-4 ovarian) was > 100 µM, the TGI (CCRF-CEM leukemia) was > 100 µM and the TGI (SK-MEL-28 melanoma) was > 100 µM. The TGI (A498 renal) was > 100 µM, the TGI (IGROV1 ovarian) was > 100 µM and the TGI (HL-60(TB) leukemia) was > 100 µM. For the same compound, the TGI (UACC-62 melanoma) was > 100 µM, the TGI (EKVX NSCLC) was > 100 µM and the TGI (SNB-78 CNS) was > 100 µM. The TGI (HT29 colon) was > 100 µM, the TGI (P388/ADR leukemia) was > 100 µM and the TGI (HOP-18 NSCLC) was > 100 µM. For the same compound, the TGI (MALME-3M melanoma) was > 100 µM, the TGI (HCT-15 colon) was > 100 µM and the TGI (HCC-2998 colon) was > 100 µM. The TGI (SF-295 CNS) was > 100 µM, the TGI (K-562 leukemia) was > 100 µM and the TGI (XF 498 CNS) was > 100 µM. The TGI (RXF 393 renal) was > 100 µM, the TGI (COLO 205 colon) was > 100 µM and the TGI (OVCAR-3 ovarian) was > 100 µM. The TGI (SN12C renal) was > 100 µM, the TGI (SF-268 CNS) was > 100 µM and the TGI (RPMI-8226 leukemia) was > 100 µM. For the same compound, the TGI (UO-31 renal) was > 100 µM, the TGI (U251 CNS) was > 100 µM and the TGI (P388 leukemia) was > 100 µM. The TGI (HOP-62 NSCLC) was > 100 µM, the TGI (LOX IMVI melanoma) was > 100 µM and the TGI (UACC-257 melanoma) was > 100 µM. The TGI (SF-539 CNS) was > 100 µM, the TGI (NCI-H460 lung) was > 100 µM and the TGI (DLD-1 colon) was > 100 µM. For the same compound, the TGI (MOLT-4 leukemia) was > 100 µM, the TGI (M19-MEL melanoma) was > 100 µM and the TGI (SW-620 colon) was > 100 µM. The TGI (KM20L2 colon) was > 100 µM, the TGI (MCF7 breast) was > 100 µM and the TGI (SK-MEL-5 melanoma) was > 100 µM. For the same compound, the TGI (KM12 colon) was > 100 µM, the TGI (NCI/ADR-RES ovarian) was > 100 µM and the TGI (DMS 273 small cell lung) was > 100 µM. For the same compound, the TGI (SK-OV-3 ovarian) was > 100 µM and the TGI (SN12K1 renal) was > 100 µM.

`O=S(=O)(O)c1ccc(-c2c3nc(c(-c4ccc(S(=O)(=O)O)cc4)c4ccc([nH]4)c(-c4ccc(S(=O)(=O)O)cc4)c4nc(c(-c5ccc(S(=O)(=O)O)cc5)c5ccc2[nH]5)C=C4)C=C3)cc1` was tested, and the TGI (MDA-MB-435) was > 100 µM, the TGI (A549 NSCLC) was > 100 µM and the TGI (M14 melanoma) was > 100 µM. For the same compound, the TGI (HCT-116 colon) was > 100 µM, the TGI (OVCAR-8 ovarian) was > 100 µM and the TGI (OVCAR-5 ovarian) was > 100 µM. The TGI (LXFL 529 NSCLC) was > 100 µM, the TGI (NCI-H23 lung) was > 100 µM and the TGI (CAKI-1 renal) was > 100 µM. The TGI (SK-MEL-2 melanoma) was > 100 µM, the TGI (SNB-75 CNS) was > 100 µM and 55.1 µM and the TGI (SNB-19 CNS) was > 100 µM. The TGI (HOP-92 NSCLC) was > 100 µM and 76.8 µM, the TGI (NCI-H522 lung) was > 100 µM and the TGI (NCI-H226 lung) was 93.6 µM. The TGI (OVCAR-4 ovarian) was > 100 µM, the TGI (CCRF-CEM leukemia) was 79.9 µM and > 100 µM and the TGI (RXF-631 renal) was > 100 µM. The TGI (MDA-MB-231 breast) was > 100 µM, the TGI (SK-MEL-28 melanoma) was > 100 µM and 73.4 µM and the TGI (A498 renal) was > 100 µM. The TGI (TK-10 renal) was 73.9 µM and > 100 µM, the TGI (IGROV1 ovarian) was > 100 µM and the TGI (HL-60(TB) leukemia) was > 100 µM. The TGI (UACC-62 melanoma) was > 100 µM, the TGI (BT-549 breast) was 74.5 µM and the TGI (EKVX NSCLC) was > 100 µM. For the same compound, the TGI (SNB-78 CNS) was > 100 µM, the TGI (HT29 colon) was > 100 µM and the TGI (HOP-18 NSCLC) was > 100 µM. For the same compound, the TGI (MALME-3M melanoma) was > 100 µM, the TGI (HCT-15 colon) was > 100 µM and the TGI (HS 578T breast) was > 100 µM. For the same compound, the TGI (HCC-2998 colon) was > 100 µM, the TGI (SF-295 CNS) was > 100 µM and the TGI (K-562 leukemia) was > 100 µM. For the same compound, the TGI (XF 498 CNS) was > 100 µM, the TGI (RXF 393 renal) was 96.2 µM and 85.3 µM and the TGI (COLO 205 colon) was > 100 µM. The TGI (OVCAR-3 ovarian) was > 100 µM, the TGI (SN12C renal) was > 100 µM and the TGI (SF-268 CNS) was > 100 µM. For the same compound, the TGI (RPMI-8226 leukemia) was > 100 µM, the TGI (UO-31 renal) was > 100 µM and 54.8 µM and the TGI (U251 CNS) was > 100 µM. The TGI (786-0 renal) was > 100 µM, the TGI (HOP-62 NSCLC) was > 100 µM and the TGI (LOX IMVI melanoma) was > 100 µM. The TGI (UACC-257 melanoma) was > 100 µM, the TGI (SF-539 CNS) was > 100 µM and the TGI (SR leukemia) was > 100 µM. The TGI (NCI-H460 lung) was > 100 µM, the TGI (T-47D breast) was > 100 µM and the TGI (DLD-1 colon) was > 100 µM. For the same compound, the TGI (MOLT-4 leukemia) was 12.8 µM and > 100 µM, the TGI (M19-MEL melanoma) was > 100 µM and the TGI (SW-620 colon) was > 100 µM. For the same compound, the TGI (PC-3 prostate) was > 100 µM, the TGI (KM20L2 colon) was > 100 µM and the TGI (MCF7 breast) was > 100 µM. The TGI (SK-MEL-5 melanoma) was > 100 µM, the TGI (KM12 colon) was > 100 µM and the TGI (DMS 114 small cell lung) was > 100 µM. For the same compound, the TGI (NCI/ADR-RES ovarian) was > 100 µM, the TGI (DMS 273 small cell lung) was > 100 µM and the TGI (SK-OV-3 ovarian) was > 100 µM. The TGI (DU-145 prostate) was > 100 µM and the TGI (ACHN renal) was > 100 µM.
